From patent US12247045B2, “MAP4K4 inhibitors” (Imperial College Innovations Limited, priority 2018, dated 2025)
Where two headings read alike, the source gives them in different places.

Columns and labels:
MINK1/MAP4K6 = MINK1/MAP4K6 (Homo sapiens, UniProt Q8N4C8); assay: Kinase selectivity panel, MINK1/MAP4K6; type: biochemical; settings: read-out: pIC50 MINK1/MAP4K6 (converted)
Excerpt: (§1) The data in Table 42 also provides the fold selectivity of the two compounds in favour of MAP4K4 over the tested kinase. The fold selectivity is indicated in parenthesis.

[1] = molecular target: T1, human MAP4K4 kinase domain (Homo sapiens, UniProt O95819); assay: MAP4K4 kinase activity, CisBio HTRF Transcreener ADP assay; type: biochemical
T1 construct: 0.5 nM human MAP4K4 kinase domain (Invitrogen); purchased Invitrogen
Method in brief: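 HTRF Transcreener ADP read-out (665/620 nm ratio) of ADP formed by 0.5 nM kinase domain with 1 μM biotin-myelin basic protein substrate and ATP at Km (10 μM), 1% DMSO, 2 h reaction. IC50 values binned as A ≤100 nM, B 100 nM–1 μM, C >1 μM.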

KHS/MAP4K5 = KHS/MAP4K5 (Homo sapiens, UniProt Q9Y4K4); assay: Kinase selectivity panel, KHS/MAP4K5; type: biochemical
Excerpt: as §1

NUAK1 = molecular target: T2, NUAK1 (Homo sapiens, UniProt O60285); assay: Kinase selectivity panel, NUAK1; type: biochemical
T2 sequence (O60285 1-661): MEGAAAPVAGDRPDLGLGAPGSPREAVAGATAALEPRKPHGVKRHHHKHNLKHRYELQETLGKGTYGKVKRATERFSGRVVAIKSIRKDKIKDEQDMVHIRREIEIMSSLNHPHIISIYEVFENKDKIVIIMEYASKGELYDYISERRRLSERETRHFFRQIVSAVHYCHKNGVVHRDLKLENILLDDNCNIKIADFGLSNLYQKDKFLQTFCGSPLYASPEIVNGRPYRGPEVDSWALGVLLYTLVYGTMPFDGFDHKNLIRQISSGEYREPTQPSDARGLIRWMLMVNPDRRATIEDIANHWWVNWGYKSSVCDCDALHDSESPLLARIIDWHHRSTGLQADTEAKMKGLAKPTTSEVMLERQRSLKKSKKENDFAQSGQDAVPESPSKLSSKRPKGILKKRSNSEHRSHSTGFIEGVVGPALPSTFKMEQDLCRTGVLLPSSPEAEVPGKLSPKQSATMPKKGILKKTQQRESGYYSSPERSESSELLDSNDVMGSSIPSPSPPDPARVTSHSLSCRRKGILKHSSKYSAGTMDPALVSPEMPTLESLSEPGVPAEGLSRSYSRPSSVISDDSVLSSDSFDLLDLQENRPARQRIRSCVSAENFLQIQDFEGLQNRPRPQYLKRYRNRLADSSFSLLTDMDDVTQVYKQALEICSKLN
Excerpt: as §1

[2] = test system: mice undergoing experimental myocardial infarction; assay: Infarct size in mice undergoing experimental myocardial infarction; type: in vivo; settings: compared to vehicle control (DMSO)
Method: To test if target validation and compound development in hiPSC-CMs might predict success in a whole-animal context, mice undergoing experimental myocardial infarction were treated with Ex-78 or the vehicle control (DMSO) (FIG. 6). The suppression of cardiac muscle cell death achieved roughly a 55% reduction in infarct size as a proportion of the area at ischemic risk compared to control.

Aurora B = Aurora B (Homo sapiens, UniProt Q96GD4); assay: Kinase selectivity panel, Aurora B; type: biochemical; settings: in favour of MAP4K4
Excerpt: as §1

TNIK/MAP4K7 = TNIK/MAP4K7 (Homo sapiens, UniProt Q9UKE5); assay: Kinase selectivity panel, TNIK/MAP4K7; type: biochemical; settings: read-out: pIC50 TNIK/MAP4K7 (converted)
Excerpt: as §1

MLK3/MAP3K11 = MLK3/MAP3K11 (Homo sapiens, UniProt Q16584); assay: Kinase selectivity panel, MLK3/MAP3K11; type: biochemical
Excerpt: as §1

GCK/MAP4K2 = molecular target: T3, GCK/MAP4K2 (Homo sapiens, UniProt Q12851); assay: Kinase selectivity panel, GCK/MAP4K2; type: biochemical
T3 sequence (Q12851 1-820): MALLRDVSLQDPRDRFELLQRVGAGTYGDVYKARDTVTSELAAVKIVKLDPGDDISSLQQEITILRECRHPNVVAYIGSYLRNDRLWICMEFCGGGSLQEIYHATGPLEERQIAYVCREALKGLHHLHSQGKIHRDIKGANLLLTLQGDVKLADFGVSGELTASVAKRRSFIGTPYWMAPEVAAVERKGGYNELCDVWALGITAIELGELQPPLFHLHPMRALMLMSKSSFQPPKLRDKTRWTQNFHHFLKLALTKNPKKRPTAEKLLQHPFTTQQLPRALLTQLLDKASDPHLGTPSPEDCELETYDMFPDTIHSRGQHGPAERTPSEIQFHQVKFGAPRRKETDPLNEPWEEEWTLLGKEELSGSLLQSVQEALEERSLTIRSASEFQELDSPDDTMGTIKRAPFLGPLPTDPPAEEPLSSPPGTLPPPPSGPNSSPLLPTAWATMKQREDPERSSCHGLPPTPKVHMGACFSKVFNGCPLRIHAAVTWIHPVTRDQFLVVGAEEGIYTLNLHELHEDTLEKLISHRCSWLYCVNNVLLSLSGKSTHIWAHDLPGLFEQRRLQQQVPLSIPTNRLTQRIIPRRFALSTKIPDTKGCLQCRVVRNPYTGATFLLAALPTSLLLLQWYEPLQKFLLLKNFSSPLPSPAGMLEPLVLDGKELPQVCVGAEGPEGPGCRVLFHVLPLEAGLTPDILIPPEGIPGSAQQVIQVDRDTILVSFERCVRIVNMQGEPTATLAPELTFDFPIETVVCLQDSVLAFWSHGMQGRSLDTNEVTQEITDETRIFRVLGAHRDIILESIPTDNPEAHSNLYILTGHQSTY
Excerpt: as §1

MLK1/MAP3K9 = MLK1/MAP3K9 (Homo sapiens, UniProt P80192); assay: Kinase selectivity panel, MLK1/MAP3K9; type: biochemical
Excerpt: as §1

MLK3/MAP3K11, sequence (Q16584 whole entry): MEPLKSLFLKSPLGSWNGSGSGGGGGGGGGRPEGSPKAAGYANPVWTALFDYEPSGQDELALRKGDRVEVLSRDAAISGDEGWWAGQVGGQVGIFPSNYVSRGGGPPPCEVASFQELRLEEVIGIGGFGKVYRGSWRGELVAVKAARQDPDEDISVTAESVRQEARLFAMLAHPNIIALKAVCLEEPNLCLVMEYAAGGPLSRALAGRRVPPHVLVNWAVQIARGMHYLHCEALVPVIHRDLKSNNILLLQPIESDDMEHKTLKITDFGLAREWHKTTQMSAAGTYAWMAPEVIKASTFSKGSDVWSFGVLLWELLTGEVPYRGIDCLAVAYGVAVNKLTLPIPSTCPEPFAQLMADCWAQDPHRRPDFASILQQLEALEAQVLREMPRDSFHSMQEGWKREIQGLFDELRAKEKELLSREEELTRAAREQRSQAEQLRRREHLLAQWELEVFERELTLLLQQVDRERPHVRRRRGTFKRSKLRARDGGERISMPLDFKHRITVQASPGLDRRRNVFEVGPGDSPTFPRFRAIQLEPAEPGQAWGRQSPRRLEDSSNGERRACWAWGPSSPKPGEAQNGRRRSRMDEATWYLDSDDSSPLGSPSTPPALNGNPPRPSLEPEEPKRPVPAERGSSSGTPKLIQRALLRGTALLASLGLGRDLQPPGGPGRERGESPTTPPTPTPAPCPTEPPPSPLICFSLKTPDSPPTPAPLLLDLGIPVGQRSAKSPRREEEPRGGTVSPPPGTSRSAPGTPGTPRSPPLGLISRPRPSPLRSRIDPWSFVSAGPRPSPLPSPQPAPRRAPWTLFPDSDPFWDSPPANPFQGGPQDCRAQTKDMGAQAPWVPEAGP
KHS/MAP4K5, sequence (Q9Y4K4 whole entry): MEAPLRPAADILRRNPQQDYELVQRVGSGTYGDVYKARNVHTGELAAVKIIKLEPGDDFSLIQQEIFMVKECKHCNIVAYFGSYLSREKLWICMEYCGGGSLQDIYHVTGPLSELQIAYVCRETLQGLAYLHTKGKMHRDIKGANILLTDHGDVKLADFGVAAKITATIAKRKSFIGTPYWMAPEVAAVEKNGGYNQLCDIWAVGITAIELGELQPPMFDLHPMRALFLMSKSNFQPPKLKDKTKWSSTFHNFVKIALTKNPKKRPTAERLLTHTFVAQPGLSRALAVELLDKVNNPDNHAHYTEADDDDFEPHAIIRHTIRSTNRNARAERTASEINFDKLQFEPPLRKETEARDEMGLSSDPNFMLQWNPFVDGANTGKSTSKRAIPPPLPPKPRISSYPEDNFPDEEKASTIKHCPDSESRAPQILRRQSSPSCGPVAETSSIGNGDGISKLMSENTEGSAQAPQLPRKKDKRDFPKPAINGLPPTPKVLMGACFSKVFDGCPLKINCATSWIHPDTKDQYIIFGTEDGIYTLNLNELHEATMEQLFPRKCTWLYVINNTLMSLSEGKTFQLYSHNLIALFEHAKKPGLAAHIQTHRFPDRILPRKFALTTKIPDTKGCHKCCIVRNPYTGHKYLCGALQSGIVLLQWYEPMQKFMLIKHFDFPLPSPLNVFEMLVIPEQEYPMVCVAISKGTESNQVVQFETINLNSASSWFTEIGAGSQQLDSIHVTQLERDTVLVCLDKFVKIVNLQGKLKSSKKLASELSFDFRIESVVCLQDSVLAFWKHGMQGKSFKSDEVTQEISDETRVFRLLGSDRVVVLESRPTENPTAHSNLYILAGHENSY
MLK1/MAP3K9, sequence (P80192 whole entry): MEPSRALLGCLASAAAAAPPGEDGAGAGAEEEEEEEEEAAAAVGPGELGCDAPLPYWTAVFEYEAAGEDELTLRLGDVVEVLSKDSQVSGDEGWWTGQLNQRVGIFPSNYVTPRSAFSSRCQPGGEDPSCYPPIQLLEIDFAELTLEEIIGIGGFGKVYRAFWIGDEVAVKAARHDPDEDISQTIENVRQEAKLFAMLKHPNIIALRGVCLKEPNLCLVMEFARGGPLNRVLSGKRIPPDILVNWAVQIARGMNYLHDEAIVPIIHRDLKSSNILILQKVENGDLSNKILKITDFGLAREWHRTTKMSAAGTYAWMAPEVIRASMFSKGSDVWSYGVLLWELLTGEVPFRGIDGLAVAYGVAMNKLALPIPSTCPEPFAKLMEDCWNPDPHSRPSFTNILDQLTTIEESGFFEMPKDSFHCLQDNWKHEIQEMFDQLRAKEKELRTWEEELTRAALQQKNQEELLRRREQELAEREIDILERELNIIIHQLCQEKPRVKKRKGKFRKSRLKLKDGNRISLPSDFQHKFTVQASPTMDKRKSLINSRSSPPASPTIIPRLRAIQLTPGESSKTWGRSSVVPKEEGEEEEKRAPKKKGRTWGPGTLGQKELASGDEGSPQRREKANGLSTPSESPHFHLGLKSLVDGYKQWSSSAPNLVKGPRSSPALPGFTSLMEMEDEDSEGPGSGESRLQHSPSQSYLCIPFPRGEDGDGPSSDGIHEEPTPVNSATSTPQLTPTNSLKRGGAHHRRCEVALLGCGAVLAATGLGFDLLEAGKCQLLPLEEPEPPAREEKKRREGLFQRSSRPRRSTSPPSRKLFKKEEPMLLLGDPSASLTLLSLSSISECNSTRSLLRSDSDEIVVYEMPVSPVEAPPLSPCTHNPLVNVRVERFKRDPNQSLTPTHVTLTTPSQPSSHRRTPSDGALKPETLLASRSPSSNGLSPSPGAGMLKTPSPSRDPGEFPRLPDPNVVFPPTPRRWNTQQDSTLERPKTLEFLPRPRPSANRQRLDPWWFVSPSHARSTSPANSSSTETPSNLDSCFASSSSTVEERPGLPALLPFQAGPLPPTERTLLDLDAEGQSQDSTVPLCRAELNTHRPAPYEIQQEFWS
T1 sequence (O95819 25-289 limits assumed): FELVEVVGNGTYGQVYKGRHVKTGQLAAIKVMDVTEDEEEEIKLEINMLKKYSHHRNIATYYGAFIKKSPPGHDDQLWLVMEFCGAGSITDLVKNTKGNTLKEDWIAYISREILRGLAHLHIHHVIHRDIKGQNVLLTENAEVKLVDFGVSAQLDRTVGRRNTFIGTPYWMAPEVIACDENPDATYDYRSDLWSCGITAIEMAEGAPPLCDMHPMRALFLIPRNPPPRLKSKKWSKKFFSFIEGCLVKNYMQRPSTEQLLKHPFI
TNIK/MAP4K7, sequence (Q9UKE5 whole entry): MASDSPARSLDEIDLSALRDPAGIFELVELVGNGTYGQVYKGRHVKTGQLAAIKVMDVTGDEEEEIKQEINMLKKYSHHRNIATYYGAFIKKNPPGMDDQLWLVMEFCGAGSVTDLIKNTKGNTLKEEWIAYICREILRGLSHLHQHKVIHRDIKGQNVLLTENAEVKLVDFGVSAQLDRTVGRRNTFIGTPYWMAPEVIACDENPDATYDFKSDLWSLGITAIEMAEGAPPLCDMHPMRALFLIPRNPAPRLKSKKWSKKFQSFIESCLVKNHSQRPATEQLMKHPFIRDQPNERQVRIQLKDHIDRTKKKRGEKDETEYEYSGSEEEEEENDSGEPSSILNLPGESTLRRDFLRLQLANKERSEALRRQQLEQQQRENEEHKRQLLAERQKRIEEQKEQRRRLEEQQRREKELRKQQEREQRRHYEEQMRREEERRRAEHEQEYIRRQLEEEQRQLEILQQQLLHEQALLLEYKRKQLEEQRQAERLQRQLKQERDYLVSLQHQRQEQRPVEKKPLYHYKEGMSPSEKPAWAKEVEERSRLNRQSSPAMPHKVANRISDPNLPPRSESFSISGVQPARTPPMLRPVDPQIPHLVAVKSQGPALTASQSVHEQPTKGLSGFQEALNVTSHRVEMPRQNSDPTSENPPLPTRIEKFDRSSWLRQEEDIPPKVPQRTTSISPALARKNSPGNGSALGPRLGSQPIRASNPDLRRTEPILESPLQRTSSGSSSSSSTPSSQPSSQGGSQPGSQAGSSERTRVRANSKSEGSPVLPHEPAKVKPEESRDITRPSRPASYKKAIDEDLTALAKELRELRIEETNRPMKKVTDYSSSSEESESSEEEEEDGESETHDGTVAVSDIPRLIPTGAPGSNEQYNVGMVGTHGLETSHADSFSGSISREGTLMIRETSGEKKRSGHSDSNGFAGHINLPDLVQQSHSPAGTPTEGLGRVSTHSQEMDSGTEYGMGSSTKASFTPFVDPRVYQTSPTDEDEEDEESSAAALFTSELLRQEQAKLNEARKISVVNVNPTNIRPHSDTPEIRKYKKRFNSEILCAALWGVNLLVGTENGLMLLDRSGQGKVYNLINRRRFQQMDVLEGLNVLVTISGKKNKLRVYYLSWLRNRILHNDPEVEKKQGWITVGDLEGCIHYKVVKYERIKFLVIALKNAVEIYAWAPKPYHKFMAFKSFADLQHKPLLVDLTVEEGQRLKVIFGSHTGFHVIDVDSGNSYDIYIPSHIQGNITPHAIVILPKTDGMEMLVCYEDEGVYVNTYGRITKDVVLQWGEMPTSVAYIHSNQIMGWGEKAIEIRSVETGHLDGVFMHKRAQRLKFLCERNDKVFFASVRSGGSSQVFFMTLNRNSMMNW
Aurora B, sequence (Q96GD4 whole entry): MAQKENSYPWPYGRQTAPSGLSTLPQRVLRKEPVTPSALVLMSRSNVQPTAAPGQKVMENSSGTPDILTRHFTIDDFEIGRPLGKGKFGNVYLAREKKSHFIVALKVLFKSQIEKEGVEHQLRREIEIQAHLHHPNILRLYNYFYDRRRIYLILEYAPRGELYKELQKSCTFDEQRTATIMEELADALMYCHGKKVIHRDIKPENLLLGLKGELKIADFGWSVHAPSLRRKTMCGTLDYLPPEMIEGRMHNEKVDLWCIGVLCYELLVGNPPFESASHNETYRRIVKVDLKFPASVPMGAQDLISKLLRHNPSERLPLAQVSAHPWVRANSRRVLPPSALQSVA

Work on `CC(C)(O)CCOc1ccc(-c2cn(-c3cccnc3)c3nc[nH]c(=O)c23)cc1` [Ex-78, 5-(4-(3-hydroxy-3-methylbutoxy)phenyl)-7-(pyridin-3-yl)-3,7-dihydro-4H-pyrrolo[2,3-d]pyrimidin-4-one] yielded an IC50 (MINK1/MAP4K6) of 63.1 nM, an IC50 ([1]; IC50 category, ATP at Km (10 μM), 0.5 nM kinase domain, 2 h, read-out: MAP4K4) of at most 100 nM and an IC50 ([1]; read-out: pIC50 MAP4K4 (converted)) of 31.6 nM. For the same molecule, the “fold selectivity MAP4K4 over KHS/MAP4K5” value (KHS/MAP4K5; in favour of MAP4K4) was “(10) fold”, the IC50 (KHS/MAP4K5; read-out: pIC50 KHS/MAP4K5 (converted)) was 316 nM and the “fold selectivity MAP4K4 over NUAK1” value (NUAK1; in favour of MAP4K4) was “(16) fold”. The IC50 (NUAK1; read-out: pIC50 NUAK1 (converted)) was 501 nM, the “reduction in infarct size as a proportion of the area at ischemic risk” value [2] was about 55% and the “fold selectivity MAP4K4 over Aurora B” value (Aurora B) was “(1000) fold”. The IC50 (TNIK/MAP4K7) was 126 nM, the “fold selectivity MAP4K4 over MLK3/MAP3K11” value (MLK3/MAP3K11; in favour of MAP4K4) was “(8) fold” and the IC50 (MLK3/MAP3K11; read-out: pIC50 MLK3/MAP3K11 (converted)) was 251 nM. For the same molecule, the “fold selectivity MAP4K4 over GCK/MAP4K2” value (GCK/MAP4K2; in favour of MAP4K4) was “(32) fold”, the IC50 (GCK/MAP4K2; read-out: pIC50 GCK/MAP4K2 (converted)) was 1000 nM and the “fold selectivity MAP4K4 over MLK1/MAP3K9” value (MLK1/MAP3K9; in favour of MAP4K4) was “(4) fold”. The IC50 (MLK1/MAP3K9; read-out: pIC50 MLK1/MAP3K9 (converted)) was 126 nM.
